The values below come from ChEMBL document CHEMBL5634160, “Synthesis, biological evaluation and action mechanism of 7H-[1,2,4] triazolo [3,4-b] [1,3,4] thiadiazine-phenylhydrazone derivatives as α-glucosidase inhibitors” (Eur J Med Chem, 2023).

In the test the target is Alpha-glucosidase (Saccharomyces cerevisiae S288c, UniProt P53341+P38158+P07265). In words: Inhibition of Saccharomyces cerevisiae alpha-glucosidase using nitrophenol-alpha-D-glucopyranoside (pNPG) as substrate incubated for 15 mins. The class given is protein assay.

The term IC50 denotes the concentration that gives 50% inhibition. Lower therefore signals higher potency. On to `Clc1ccccc1/C=N/Nc1nnc2n1N=C(c1ccccc1)CS2`, for which the concentration for half-maximal inhibition (IC50) came to 41.83 µM.
Under `Clc1cccc(/C=N/Nc2nnc3n2N=C(c2ccccc2)CS3)c1` stands 42.36 µM; under `COc1ccc(/C=N/Nc2nnc3n2N=C(c2ccccc2)CS3)cc1`, 85.86 µM; under `Oc1ccc(/C=N/Nc2nnc3n2N=C(c2ccccc2)CS3)c(O)c1`, 32.96 µM.
